Experimental data: patent US20250295798A1, “LIGAND-DRUG CONJUGATE OF EXATECAN ANALOGUE, AND MEDICAL USE THEREOF” (BeiGene Switzerland GmbH, priority 2022, published 2025)
pEC50: −log10 of the molar value. Counter-ions that a name gives are not always drawn.

Columns and labels:
A375 = experiment: Compounds cellular killing in A375; assay type: cell-based, human; settings: A375, 6 days, Cell Titer-Glo
Description: (§1) Seeding cells A375 (1E3/well) or Calu-6 (2E3/well) into 96-well plate (Greiner: 655090), 100 ul/well. Incubation at 37° C., 5% CO2, overnight.
(§2) Adding the fresh growth-medium containing the varying concentrations of compounds, 50 ul/well.
(§3) Incubation at 37° C., 5% CO2, 6 days.
(§4) The cell viability detected by Cell Titer-Glo (Promega, G7573). Add 70 µL/well of CellTiter-Glo® Reagent in each well.
(§5) Allow the plates to incubate at room temperature for 10 minutes to stabilize luminescent signal.
(§6) Analyze with Microplate Reader.
(§7) Seeding cells A375 ([…] or Calu-6 (2E3/well) into 96-well plate (Greiner: 655090), 100 ul/well. Incubation at 37° C., […], overnight.

Calu-6 = experiment: Compounds cellular killing in Calu-6; assay type: cell-based, human; settings: Calu-6, 6 days, Cell Titer-Glo
Description: as §1, §2, §3, §4, §5, §6, §7

CC[C@@]1(O)C(=O)OCc2c1cc1n(c2=O)Cc2c-1nc1cc(F)c(C)c3c1c2[C@@H](n1cc(CO)nn1)CC3 [Example 2-22, (1S,9S)-9-ethyl-5-fluoro-9-hydroxy-1-(4-(hydroxymethyl)-1H-1,2,3-triazol-1-yl)-4-methyl-1,2,3,9,12,15-hexahydro-10H,13H-benzo[de]pyrano[3′,4′:6,7]indolizino[1,2-b]quinoline-10,13-dione] showed a pEC50 (A375; Homo sapiens, A-375, […]) of 7.98, an Emax (A375; Homo sapiens, A-375, […]) of 97.7% and a pEC50 (Calu-6; Homo sapiens, Calu-6, […]) of 8.25. It also gave an Emax (Calu-6; Homo sapiens, Calu-6, […]) of 98%.
With CC[C@@]1(O)C(=O)OCc2c1cc1n(c2=O)Cc2c-1nc1cc(F)c(C)c3c1c2[C@@H](NC(=O)[C@@H]1C[C@@H](O)CN1C)CC3 [Example 2-36, (2S,4R)—N-((1S,9S)-9-ethyl-5-fluoro-9-hydroxy-4-methyl-10,13-dioxo-2,3,9,10,13,15-hexahydro-1H,12H-benzo[de]pyrano[3′,4′:6,7]indolizino[1,2-b]quinolin-1-yl)-4-hydroxy-1-methylpyrrolidine-2-carboxamide] the pEC50 (A375; Homo sapiens, A-375, […]) was 7.86, the Emax (A375; Homo sapiens, A-375, […]) was 97.8% and the pEC50 (Calu-6; Homo sapiens, Calu-6, […]) was 8.21. The Emax (Calu-6; Homo sapiens, Calu-6, […]) was 97.7%.
With CC[C@@]1(O)C(=O)OCc2c1cc1n(c2=O)Cc2c-1nc1cc(F)c(C)c3c1c2[C@@H](NC(=O)C(O)(C(F)(F)F)C(F)(F)F)CC3 [Example 2-21, N-((1S,9S)-9-ethyl-5-fluoro-9-hydroxy-4-methyl-10,13-dioxo-2,3,9,10,13,15-hexahydro-1H,12H-benzo[de]pyrano[3′,4′:6,7]indolizino[1,2-b]quinolin-1-yl)-3,3,3-trifluoro-2-hydroxy-2-(trifluoromethyl)propenamide] the pEC50 (A375; Homo sapiens, A-375, […]) was 8.35, the Emax (A375; Homo sapiens, A-375, […]) was 98.3% and the pEC50 (Calu-6; Homo sapiens, Calu-6, […]) was 9.40. It also gave an Emax (Calu-6; Homo sapiens, Calu-6, […]) of 96.7%.
With CC[C@@]1(O)C(=O)OCc2c1cc1n(c2=O)Cc2c-1nc1cc(F)c(C)c3c1c2C(CCCCO)CC3 (stereo partly drawn) [Example 2-48, (9S)-9-ethyl-5-fluoro-9-hydroxy-1-(4-hydroxybutyl)-4-methyl-1,2,3,9,12,15-hexahydro-10H,13H-benzo[de]pyrano[3′,4′:6,7]indolizino[1,2-b]quinoline-10,13-dione] the pEC50 (A375; Homo sapiens, A-375, […]) was 9.40, the Emax (A375; Homo sapiens, A-375, […]) was 99.5% and the pEC50 (Calu-6; Homo sapiens, Calu-6, […]) was 10.00. It also gave an Emax (Calu-6; Homo sapiens, Calu-6, […]) of 98.7%.
For CC[C@@]1(O)C(=O)OCc2c1cc1n(c2=O)Cc2c-1nc1cc(F)c(F)c3c1c2[C@@H](NC(=O)CO)CC3 [Example 2-30, N-((1S,9S)-9-ethyl-4,5-difluoro-9-hydroxy-10,13-dioxo-2,3,9,10,13,15-hexahydro-1H,12H-benzo[de]pyrano[3′,4′:6,7]indolizino[1,2-b]quinolin-1-yl)-2-hydroxyacetamide], the pEC50 (A375; Homo sapiens, A-375, […]) was 8.92, the Emax (A375; Homo sapiens, A-375, […]) was 98.9% and the pEC50 (Calu-6; Homo sapiens, Calu-6, […]) was 9.15. It also gave an Emax (Calu-6; Homo sapiens, Calu-6, […]) of 98.9%.
With CC[C@@]1(O)C(=O)OCc2c1cc1n(c2=O)Cc2c-1nc1cc(F)c(OC)c3c1c2[C@@H](N)CC3 [Example 1-1, (1S,9S)-1-amino-9-ethyl-5-fluoro-9-hydroxy-4-methoxy-1,2,3,9,12,15-hexahydro-10H,13H-benzo[de]pyrano[3′,4′:6,7]indolizino[1,2-b]quinoline-10,13-dione methanesulfonate] the pEC50 (A375; Homo sapiens, A-375, […]) was 8.70, the Emax (A375; Homo sapiens, A-375, […]) was 100% and the pEC50 (Calu-6; Homo sapiens, Calu-6, […]) was 9.05. For the same compound, the Emax (Calu-6; Homo sapiens, Calu-6, […]) was 99.6%.
In the case of CC[C@@]1(O)C(=O)OCc2c1cc1n(c2=O)Cc2c-1nc1cc(F)cc3c1c2[C@@H](NC(=O)CO)CC3 [Example 2-31, N-((1S,9S)-9-ethyl-5-fluoro-9-hydroxy-10,13-dioxo-2,3,9,10,13,15-hexahydro-1H,12H-benzo[de]pyrano[3′,4′:6,7]indolizino[1,2-b]quinolin-1-yl)-2-hydroxyacetamide], the pEC50 (A375; Homo sapiens, A-375, […]) was 8.21, the Emax (A375; Homo sapiens, A-375, […]) was 98.9% and the pEC50 (Calu-6; Homo sapiens, Calu-6, […]) was 8.38. For the same compound, the Emax (Calu-6; Homo sapiens, Calu-6, […]) was 98.9%.
For CC[C@@]1(O)C(=O)OCc2c1cc1n(c2=O)Cc2c-1nc1cc(F)c(Cl)c3c1c2[C@@H](N)CC3 [Example 1-26, ((1S,9S)-1-amino-4-chloro-9-ethyl-5-fluoro-9-hydroxy-1,2,3,9,12,15-hexahydro-10H,13H-benzo[de]pyrano[3′,4′:6,7]indolizino[1,2-b]quinoline-10,13-dione 2,2,2-trifluoroacetate salt], the pEC50 (A375; Homo sapiens, A-375, […]) was 9.00, the Emax (A375; Homo sapiens, A-375, […]) was 98.1% and the pEC50 (Calu-6; Homo sapiens, Calu-6, […]) was 9.52. It also gave an Emax (Calu-6; Homo sapiens, Calu-6, […]) of 98.1%.
In the case of CC[C@@]1(O)C(=O)OCc2c1cc1n(c2=O)Cc2c-1nc1cc(F)c(Cl)c3c1c2[C@@H](NC(=O)C(C)(C)CO)CC3 [Example 2-34, N-((1S,9S)-4-chloro-9-ethyl-5-fluoro-9-hydroxy-10,13-dioxo-2,3,9,10,13,15-hexahydro-1H,12H-benzo[de]pyrano[3′,4′:6,7]indolizino[1,2-b]quinolin-1-yl)-3-hydroxy-2,2-dimethylpropanamide], the pEC50 (A375; Homo sapiens, A-375, […]) was 9.10, the Emax (A375; Homo sapiens, A-375, […]) was 98.9% and the pEC50 (Calu-6; Homo sapiens, Calu-6, […]) was 9.30. It also gave an Emax (Calu-6; Homo sapiens, Calu-6, […]) of 99.4%.
CC[C@@]1(O)C(=O)OCc2c1cc1n(c2=O)Cc2c-1nc1cc(Cl)cc3c1c2[C@@H](N)CC3 [Example 1-14, (1S,9S)-1-amino-5-chloro-9-ethyl-9-hydroxy-1,2,3,9,12,15-hexahydro-10H,13H-benzo[de]pyrano[3′,4′:6,7]indolizino[1,2-b]quinoline-10,13-dione] showed a pEC50 (A375; Homo sapiens, A-375) of 8.60, an Emax (A375; Homo sapiens, A-375) of 100% and an Emax (Calu-6; Homo sapiens, Calu-6, […]) of 98.8%. The pEC50 (Calu-6; Homo sapiens) was 9.10.
CC[C@@]1(O)C(=O)OCc2c1cc1n(c2=O)Cc2c-1nc1cc3c(c4c1c2[C@@H](N)CC4)OC(F)(F)O3 [Example 1-16, (1S,10S)-1-amino-10-ethyl-5,5-difluoro-10-hydroxy-1,2,3,10,13,16-hexahydro-11H,14H-benzo[de][1,3]dioxolo[4,5-g]pyrano[3′,4′:6,7]indolizino[1,2-b]quinoline-11,14-dione 2,2,2-trifluoroacetate salt] showed a pEC50 (A375; Homo sapiens, A-375, […]) of 8.80, an Emax (A375; Homo sapiens, A-375, […]) of 98.5% and a pEC50 (Calu-6; Homo sapiens, Calu-6, […]) of 9.22. It also gave an Emax (Calu-6; Homo sapiens, Calu-6, […]) of 98.5%.
Work on CC[C@@]1(O)C(=O)OCc2c1cc1n(c2=O)Cc2c-1nc1cc(F)c(C)c3c1c2[C@@H](NC(=O)[C@@H]1C[C@H](O)CN1C(C)=O)CC3 [Example 2-38, (2S,4S)-1-acetyl-N-((1S,9S)-9-ethyl-5-fluoro-9-hydroxy-4-methyl-10,13-dioxo-2,3,9,10,13,15-hexahydro-1H,12H-benzo[de]pyrano[3′,4′:6,7]indolizino[1,2-b]quinolin-1-yl)-4-hydroxypyrrolidine-2-carboxamide] yielded a pEC50 (A375; Homo sapiens, A-375, […]) of 7.51, an Emax (A375; Homo sapiens, A-375, […]) of 98.7% and a pEC50 (Calu-6; Homo sapiens, Calu-6, […]) of 7.89. It also gave an Emax (Calu-6; Homo sapiens, Calu-6, […]) of 96.4%.
In the case of CC[C@@]1(O)C(=O)OCc2c1cc1n(c2=O)Cc2c-1nc1cc(F)c(C)c3c1c2C(CCO)CC3 (stereo partly drawn) [Example 2-46, (9S)-9-ethyl-5-fluoro-9-hydroxy-1-(2-hydroxyethyl)-4-methyl-1,2,3,9,12,15-hexahydro-10H,13H-benzo[de]pyrano[3′,4′:6,7]indolizino[1,2-b]quinoline-10,13-dione], the pEC50 (A375; Homo sapiens, A-375) was 9.15, the Emax (A375; Homo sapiens, A-375) was 100% and the Emax (Calu-6; Homo sapiens, Calu-6, […]) was 98.1%. For the same compound, the pEC50 (Calu-6; Homo sapiens) was 9.70.
CC[C@@]1(O)C(=O)OCc2c1cc1n(c2=O)Cc2c-1nc1cc3c(c4c1c2[C@@H](NC(=O)C(C)(C)CO)CC4)OCO3 [Example 2-35, N-((1S,10S)-10-ethyl-10-hydroxy-11,14-dioxo-2,3,10,11,14,16-hexahydro-1H,13H-benzo[de][1,3]dioxolo[4,5-g]pyrano[3′,4′:6,7]indolizino[1,2-b]quinolin-1-yl)-3-hydroxy-2,2-dimethylpropanamide] gave a pEC50 (A375; Homo sapiens, A-375, […]) of 8.80, an Emax (A375; Homo sapiens, A-375, […]) of 100% and a pEC50 (Calu-6; Homo sapiens, Calu-6, […]) of 9.70. The Emax (Calu-6; Homo sapiens, Calu-6, […]) was 98.6%.
CC[C@@]1(O)C(=O)OCc2c1cc1n(c2=O)Cc2c-1nc1cc(F)c(O)c3c1c2[C@@H](N)CC3 [Example 1-3, (1S,9S)-1-amino-9-ethyl-5-fluoro-4,9-dihydroxy-1,2,3,9,12,15-hexahydro-10H,13H-benzo[de]pyrano[3′,4′:6,7]indolizino[1,2-b]quinoline-10,13-dione methanesulfonate] was tested, and the pEC50 (A375; Homo sapiens, A-375, […]) was 6.89, the Emax (A375; Homo sapiens, A-375, […]) was 98.4% and the pEC50 (Calu-6; Homo sapiens, Calu-6, […]) was 7.41. The Emax (Calu-6; Homo sapiens, Calu-6, […]) was 98.8%.
CC[C@@]1(O)C(=O)OCc2c1cc1n(c2=O)Cc2c-1nc1cc(F)c(C)c3c1c2[C@@H](N1CCC1CO)CC3 (single isomer, unassigned) [Example 2-56] was tested, and the pEC50 (A375) was 9.05, the “Emax (%)” value (A375) was 100.0% and the pEC50 (Calu-6) was 9.70. For the same compound, the “Emax (%)” value (Calu-6) was 99.0%.
CC[C@@]1(O)C(=O)OCc2c1cc1n(c2=O)Cc2c-1nc1cc(C)c(C)c3c1c2[C@@H](NC(=O)CO)CC3 [Example 2-1, N-((1S,9S)-9-ethyl-9-hydroxy-4,5-dimethyl-10,13-dioxo-2,3,9,10,13,15-hexahydro-1H,12H-benzo[de]pyrano[3′,4′:6,7]indolizino[1,2-b]quinolin-1-yl)-2-hydroxyacetamide] gave a pEC50 (A375; Homo sapiens, A-375, […]) of 7.64, an Emax (A375; Homo sapiens, A-375, […]) of 98% and a pEC50 (Calu-6; Homo sapiens, Calu-6, […]) of 8.00. It also gave an Emax (Calu-6; Homo sapiens, Calu-6, […]) of 98%.
Compound CC[C@@]1(O)C(=O)OCc2c1cc1n(c2=O)Cc2c-1nc1cc(Cl)cc3c1c2[C@@H](NC(=O)CO)CC3 [Example 2-12, N-((1S,9S)-5-chloro-9-ethyl-9-hydroxy-10,13-dioxo-2,3,9,10,13,15-hexahydro-1H,12H-benzo[de]pyrano[3′,4′:6,7]indolizino[1,2-b]quinolin-1-yl)-2-hydroxyacetamide] has a pEC50 (A375; Homo sapiens, A-375, […]) of 8.17, an Emax (A375; Homo sapiens, A-375, […]) of 99.9% and a pEC50 (Calu-6; Homo sapiens, Calu-6, […]) of 8.36. The Emax (Calu-6; Homo sapiens, Calu-6, […]) was 98.9%.
Compound CC[C@@]1(O)C(=O)OCc2c1cc1n(c2=O)Cc2c-1nc1cc(F)c(C)c3c1c2[C@@H](NC(=O)CC(O)C[N+](C)(C)C)CC3 (stereo partly drawn) [Example 2-16, 4-(((1S,9S)-9-ethyl-5-fluoro-9-hydroxy-4-methyl-10,13-dioxo-2,3,9,10,13,15-hexahydro-1H,12H-benzo[de]pyrano[3′,4′:6,7]indolizino[1,2-b]quinolin-1-yl)amino)-2-hydroxy-N,N,N-trimethyl-4-oxobutan-1-aminium] has a pEC50 (A375; Homo sapiens, A-375, […]) of 6.31, an Emax (A375; Homo sapiens, A-375, […]) of 77.1% and a pEC50 (Calu-6; Homo sapiens, Calu-6, […]) of 6.61. The Emax (Calu-6; Homo sapiens, Calu-6, […]) was 87.9%.
